Reference: PubChem BioAssay AID755 (The Scripps Research Institute Molecular Screening Center, 2007)
Activity calls are given as the source filed them.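 The calls were made as follows: active = IC50 at or below 10 micromolar; inactive = IC50 above 10 micromolar.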

Each compound was assayed against 5-hydroxytryptamine receptor 1A (Homo sapiens) (UniProt P08908) (assay: human 5-HT1A antagonist potency, dose response, cell-based, CHO, Ga15 NFAT-bla reporter (AID 755)). Details: CHO 5-HT1A Ga15 NFAT-BLA reporter, FRET antagonist.
Sequence of 5-hydroxytryptamine receptor 1A (Homo sapiens) (P08908 whole entry, looked up): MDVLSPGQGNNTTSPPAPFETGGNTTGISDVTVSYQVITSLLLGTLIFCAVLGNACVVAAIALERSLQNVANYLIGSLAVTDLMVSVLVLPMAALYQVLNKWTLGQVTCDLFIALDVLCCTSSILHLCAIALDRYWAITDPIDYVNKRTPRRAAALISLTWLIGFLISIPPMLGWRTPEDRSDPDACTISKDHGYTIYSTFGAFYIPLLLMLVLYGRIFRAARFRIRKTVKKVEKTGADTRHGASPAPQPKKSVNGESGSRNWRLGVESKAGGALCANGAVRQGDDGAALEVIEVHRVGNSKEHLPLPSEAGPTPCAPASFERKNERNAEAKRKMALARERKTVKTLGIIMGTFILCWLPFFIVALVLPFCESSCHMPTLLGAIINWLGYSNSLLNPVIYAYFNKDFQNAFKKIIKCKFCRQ

| SMILES | IC50 |
| --- | --- |
| CC(=O)Oc1ccc(N2C(=O)C3C(C2=O)C2(C)C=CC3(C)O2)cc1 (stereo not given) | 7.33 µM |
| COc1ccc(N2C(=O)CC(NCc3ccncc3)C2=O)cc1 (stereo not given) | > 40 µM (inactive) |
| COc1cc2c(cc1OC)C1=C(C#N)CC/C(=N\S(=O)(=O)c3ccccc3)N1CC2 | > 40 µM (inactive) |
| CSc1ccccc1N=CC1=C(O)CC(C)(C)CC1=O | 1.88 µM |
| O=C1C2C3C=CC(CO)(O3)C2C(=O)N1c1ccc(-c2ccccc2)cc1 (stereo not given) | inactive |
